Measurements published in US12077503B2, “Substituted cyclic amides and their use as herbicides” (FMC CORPORATION, priority 2015, dated 2024).

Assays:
Assay type in all cases: in vivo
Kochia (Kochia scoparia) [1] = assay: Test A preemergence; conditions: Bassia scoparia, pre-emergence, 240 h, Preemergence
In short: (§1)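 Visual injury, scored on a 0–100 scale relative to untreated controls, was recorded about 10 d after application. Treatments were a preemergence soil spray over planted seeds or a postemergence spray on plants at the one- to two-leaf stage, 2 to 10 cm tall, all in loam soil–sand blend in the greenhouse.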

[2] = system: barnyardgrass (Echinochloa crus-galli); assay: Test A preemergence; conditions: Echinochloa crus-galli, pre-emergence, 240 h, Preemergence
In short: as §1

[3] = system: giant foxtail (Setaria faberii); assay: Test A preemergence; conditions: Setaria faberi, pre-emergence, 240 h, Preemergence
In short: as §1

[4] = system: pigweed (Amaranthus retroflexus); assay: Test A preemergence; conditions: Amaranthus retroflexus, pre-emergence, 240 h, Preemergence
[5] = system: ragweed (common ragweed, Ambrosia elatior); assay: Test A preemergence; conditions: Ambrosia artemisiifolia, pre-emergence, 240 h, Preemergence
In short: as §1

[6] = system: ryegrass, Italian (Italian ryegrass, Lolium multiflorum); assay: Test A preemergence; conditions: Lolium multiflorum, pre-emergence, 240 h, Preemergence
In short: as §1

[7] = system: Galium (catchweed bedstraw, Galium aparine); assay: Test A postemergence; conditions: Galium, post-emergence, 240 h, Postemergence, read-out: Plant response rating, Galium
In short: as §1

Kochia (Kochia scoparia) [8] = assay: Test A postemergence; conditions: Bassia scoparia, post-emergence, 240 h, Postemergence, read-out: Plant response rating, Kochia
In short: as §1

[9] = system: barnyardgrass (Echinochloa crus-galli); assay: Test A postemergence; conditions: Echinochloa crus-galli, post-emergence, 240 h, Postemergence, read-out: Plant response rating, Barnyardgrass
In short: as §1

[10] = system: blackgrass (Alopecurus myosuroides); assay: Test A postemergence; conditions: Alopecurus myosuroides, post-emergence, 240 h, Postemergence, read-out: Plant response rating, Blackgrass
In short: as §1

corn (Zea mays) = assay: Test A postemergence; conditions: Zea mays, post-emergence, 240 h, Postemergence
In short: as §1

[11] = system: giant foxtail (Setaria faberii); assay: Test A postemergence; conditions: Setaria faberi, post-emergence, 240 h, Postemergence, read-out: Plant response rating, Foxtail, Giant
In short: as §1

[12] = system: pigweed (Amaranthus retroflexus); assay: Test A postemergence; conditions: Amaranthus retroflexus, post-emergence, 240 h, Postemergence, read-out: Plant response rating, Pigweed
In short: as §1

[13] = system: ragweed (common ragweed, Ambrosia elatior); assay: Test A postemergence; conditions: Ambrosia artemisiifolia, post-emergence, 240 h, Postemergence, read-out: Plant response rating, Ragweed
In short: as §1

[14] = system: ryegrass, Italian (Italian ryegrass, Lolium multiflorum); assay: Test A postemergence; conditions: Lolium multiflorum, post-emergence, 240 h, Postemergence, read-out: Plant response rating, Ryegrass, Italian
In short: as §1

[15] = system: wheat (Triticum aestivum); assay: Test A postemergence; conditions: Triticum aestivum, post-emergence, 240 h, Postemergence, read-out: Plant response rating, Wheat
In short: as §1

[16] = system: barnyardgrass (Echinochloa crus-galli); assay: Test B flooded paddy test; conditions: Echinochloa crus-galli, 250 g ai/ha, Flood; 0 to 100 scale where 0 is no effect and 100 is complete control; read-out: Barnyardgrass plant response rating
In short: (§2)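 Percent control, visually estimated after 13–15 d in the greenhouse on a 0–100 basis, compares treated pots with untreated ones; compound was put into paddy water 3 cm above the soil when plants had two leaves.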

[17] = system: ducksalad (Heteranthera limosa); assay: Test B flooded paddy test; conditions: Heteranthera limosa, 250 g ai/ha, Flood; 0 to 100 scale where 0 is no effect and 100 is complete control; read-out: Ducksalad plant response rating
In short: as §2

rice (Oryra sativa) = assay: Test B flooded paddy test; conditions: Oryza sativa, 250 g ai/ha, Flood; 0 to 100 scale where 0 is no effect and 100 is complete control; read-out: Rice plant response rating
In short: as §2

[18] = system: sedge, umbrella (small-flower umbrella sedge, Cyperus difformis); assay: Test B flooded paddy test; conditions: Cyperus difformis, 250 g ai/ha, Flood; 0 to 100 scale where 0 is no effect and 100 is complete control; read-out: Sedge, Umbrella plant response rating
In short: as §2

[19] = 125 g ai/ha, visual injury after approximately 10 d, 0 to 100 scale where 0 is no effect and 100 is complete control
[20] = 31 g ai/ha, visual injury after approx. 10 d, 0 to 100 scale, 0 no effect, 100 complete control

CC(C)=CC1CNC(=O)C1C(=O)Nc1cccc(F)c1F (stereo not drawn) [Compound 1012]
pest or weed control at 31 g/ha (Kochia (Kochia scoparia) [1]; 31 g ai/ha, 0 to 100 scale where 0 is no effect and 100 is complete control, read-out: Kochia plant response rating): 0%
pest or weed control at 125 g/ha (Kochia (Kochia scoparia) [1]; 125 g ai/ha, visual injury rating after approximately 10 d, read-out: Kochia plant response rating (0 to 100 scale, 0 is no effect, 100 is complete control)): 0%
pest or weed control at 125 g/ha ([2]; 125 g ai/ha, visual injury rating after approximately 10 d, read-out: Barnyardgrass plant response rating (0 to 100 scale, 0 is no effect, 100 is complete control)): 0%
pest or weed control at 31 g/ha ([2]; 31 g ai/ha, 0 to 100 scale (0 no effect, 100 complete control), read-out: Plant response rating, Barnyardgrass): 0%
pest or weed control at 125 g/ha ([3]; 125 g ai/ha, visual injury rating after approximately 10 d, read-out: Foxtail, Giant plant response rating (0 to 100 scale, 0 is no effect, 100 is complete control)): 0%
pest or weed control at 31 g/ha ([3]; 31 g ai/ha, 0 to 100 scale (0 no effect, 100 complete control), read-out: Plant response rating, Foxtail, Giant): 0%
pest or weed control at 31 g/ha ([4]; 31 g ai/ha, 0 to 100 scale where 0 is no effect and 100 is complete control, read-out: Pigweed plant response rating): 0%
pest or weed control at 125 g/ha ([4]; 125 g ai/ha, visual injury rating after approximately 10 d, read-out: Pigweed plant response rating (0 to 100 scale, 0 is no effect, 100 is complete control)): 0%
pest or weed control at 31 g/ha ([5]; 31 g ai/ha, 0 to 100 scale where 0 is no effect and 100 is complete control, read-out: Ragweed plant response rating): 0%
pest or weed control at 125 g/ha ([5]; 125 g ai/ha, visual injury rating after approximately 10 d, read-out: Ragweed plant response rating (0 to 100 scale, 0 is no effect, 100 is complete control)): 0%
pest or weed control at 31 g/ha ([6]; 31 g ai/ha, 0 to 100 scale where 0 is no effect and 100 is complete control, read-out: Ryegrass, Italian plant response rating): 0%
pest or weed control at 125 g/ha ([6]; 125 g ai/ha, visual injury rating after approximately 10 d, read-out: Ryegrass, Italian plant response rating (0 to 100 scale, 0 is no effect, 100 is complete control)): 0%
pest or weed control at 125 g/ha [7, 19]: 0%
pest or weed control at 31 g/ha [7, 20]: 0%
pest or weed control at 125 g/ha (Kochia (Kochia scoparia) [8]; [19]): 0%
pest or weed control at 31 g/ha (Kochia (Kochia scoparia) [8]; [20]): 0%
pest or weed control at 125 g/ha [9, 19]: 0%
pest or weed control at 31 g/ha [9, 20]: 0%
pest or weed control at 125 g/ha [10, 19]: 0%
pest or weed control at 31 g/ha [10, 20]: 0%
Corn plant response rating (crop injury, 0 = no effect, 100 = complete kill) at 125 g/ha (corn (Zea mays); [19]): 0%
Corn plant response rating (crop injury, 0 = no effect, 100 = complete kill) at 31 g/ha (corn (Zea mays); [20]): 0%
pest or weed control at 125 g/ha [11, 19]: 0%
pest or weed control at 31 g/ha [11, 20]: 0%
pest or weed control at 125 g/ha [12, 19]: 0%
pest or weed control at 31 g/ha [12, 20]: 0%
pest or weed control at 125 g/ha [13, 19]: 0%
pest or weed control at 31 g/ha [13, 20]: 0%
pest or weed control at 125 g/ha [14, 19]: 0%
pest or weed control at 31 g/ha [14, 20]: 0%
plant injury at 125 g/ha [15, 19]: 0%
plant injury at 31 g/ha [15, 20]: 0%
pest or weed control at 250 g/ha [16]: 0%
pest or weed control at 250 g/ha [17]: 0%
pest or weed control at 250 g/ha (rice (Oryra sativa)): 20%
pest or weed control at 250 g/ha [18]: 0%
